Results: patent US8604016B2, “Heterocyclic inhibitors of glutaminase” (Calithera Biosciences Inc., priority 2011, dated 2013)
≈ marks a conversion by molar mass, not a printed value.

How the values were obtained:
Caco-2 cell monolayers = assay: Caco-2 Permeability Assay (bidirectional); format: in vitro ADME
Source text: (§1) Caco-2 cells are commonly used in a confluent monolayer on a cell culture insert filter. When cultured in this format and under specific conditions, the cells become differentiated and polarized such that their phenotype, morphologically and functionally resembles the enterocytes lining the small intestine. The cell monolayer provides a physical and biochemical barrier to the passage of small molecules, and is widely used across the pharmaceutical industry as an in vitro model of the human small intestinal mucosa to predict the absorption of orally administered drugs (Hidalgo et al., Gastroenterology, 1989; Artursson, J. Pharm. Sci., 1990). The correlation between the in vitro apparent permeability (P ? app) across Caco-2 monolayers and the in vivo absorption is well established (Artursson et al., Biochem. Biophys. Res. Comm., 1991).
(§2) The present assay was used to determine the bidirectional permeability of the compounds of the invention through Caco-2 cell monolayers. Caco-2 cells were grown in confluent monolayers where the media of both the apical (A) and basolateral (B) sides were at pH 7.4. Compounds were dosed at 1 μM in the presence of 200 μM Lucifer Yellow, on the apical side (A→B) or the basolateral side (B→A) for assessment, in duplicate.
(§3) The absorption potential of compounds were classified as either Low (P-app <1×10^−6 cm/s) or High (P-app >1×10^−6 cm/s).

[1] = Caco-2 Permeability Assay (bidirectional); format: in vitro ADME; conditions: human; for recovery at 120 min, 1 μM / Papp A→B at 120 min, 1 μM / Papp B→A at 120 min, 1 μM: pH 7.4; for efflux ratio at 120 min, 1 µM / Papp A→B at 120 min, 1 μM / Papp B→A at 120 min, 1 μM / permeability class (Low/High absorption potential) at 120 min, 1 µM: Caco-2; for efflux ratio at 120 min, 1 µM: (Papp B→A)/(Papp A→B); for Papp A→B at 120 min, 1 μM: Direction A→B; for Papp A→B at 120 min, 1 μM / Papp B→A at 120 min, 1 μM: unit not given (thresholds in 10^−6 cm/s); for Papp B→A at 120 min, 1 μM: Direction B→A; for permeability class (Low/High absorption potential) at 120 min, 1 µM: read-out: Permeability Classification
Source text: as §1, §2, §3

[2] = Solubility (18 hr vortex mixing at room temperature, filtration, HPLC); format: physicochemical; conditions: thermodynamic from solid
Protocol: Ca. 1 mg portions of test article were combined with 120 μL solvent in wells of a 96×2 mL polypropylene plate. […] The contents of all wells were then filtered through a 0.45 μm GHP filter plate to yield clear filtrates. 5 μL of each filtrate was diluted into 100 μL DMF and vortex mixed to yield HPLC samples. Duplicate quantitation standards for each test article were prepared by diluting weighed portions of solid test article in measured volumes of DMF. 2 μL of each HPLC sample and quantitation standard were analyzed by HPLC using the method outlined in Table 5. Dissolved test article concentrations were calculated by peak area ratio against the appropriate quantitation standards.

Compound	Significant Efflux (Caco-2 cell monolayers)	recovery at 120 min, 1 μM ([1]; Caco-2, pH 7.4, Direction A→B) [%]	recovery at 120 min, 1 μM ([1]; Caco-2, pH 7.4, Direction B→A) [%]	efflux ratio at 120 min, 1 µM [1]	Papp A→B at 120 min, 1 μM [1] [×10⁻⁶ cm/s]	Papp B→A at 120 min, 1 μM [1] [×10⁻⁶ cm/s]	permeability class (Low/High absorption potential) at 120 min, 1 µM [1] [×10⁻⁶ cm/s]	also measured
O=C(Cc1ccccc1Cl)Nc1ccc(CCCCc2nnc(NC(=O)Cc3ccccc3F)s2)nn1 [Compound 533]	Yes (efflux ratios being significant when greater than or equal to 3 when the Papp (B→A) was greater than or equal to 1×10^−6 cm/s)	41	52	7.6	4.94	37.5	> 1	–
O=C(Cc1cccc(OC(F)(F)F)c1)Nc1ccc(CCCCc2nnc(NC(=O)Cc3cccc(F)c3)s2)nn1 [Compound 679]	No (efflux ratios being significant when greater than or equal to 3 when the Papp (B→A) was greater than or equal to 1×10^−6 cm/s)	34	42	2.6	7.59	19.6	> 1	–
O=C(Cc1cccc(OC(F)(F)F)c1)Nc1ccc(CCCCc2nnc(NC(=O)C(O)c3cccc(Cl)c3)s2)nn1 (stereo not shown) [Compound 447]	Yes (efflux ratios being significant when greater than or equal to 3 when the Papp (B→A) was greater than or equal to 1×10^−6 cm/s)	71	56	3.5	7.76	27.2	> 1	solubility at 18 h ([2]; 50 mM citrate buffer pH 2.3, 20 °C, aqueous buffer, 50 mM Cit pH 2.3, room temperature): < 4 µg/mL; solubility at 18 h ([2]; 50 mM citrate buffer pH 3.3, 20 °C, aqueous buffer, 50 mM Cit pH 3.3, room temperature): < 4 µg/mL; solubility at 18 h ([2]; 50 mM citrate buffer pH 4.4, 20 °C, aqueous buffer, 50 mM Cit pH 4.4, room temperature): < 4 µg/mL; solubility at 18 h ([2]; 50 mM citrate buffer pH 5.4, 20 °C, aqueous buffer, 50 mM Cit pH 5.4, room temperature): < 4 µg/mL; solubility at 18 h ([2]; 20 °C, aqueous buffer, PBS, room temperature): < 4 µg/mL; solubility at 18 h ([2]; 20 °C, aqueous with cosolvent or surfactant or cyclodextrin, 10% CrEL/50 mM cit, room temperature): 732 µg/mL (≈ 1180 µM); solubility at 18 h ([2]; 20 °C, aqueous with cosolvent or surfactant or cyclodextrin, 10% PS80/50 mM cit, room temperature): 851 µg/mL (≈ 1370 µM); solubility at 18 h ([2]; 20 °C, aqueous with cosolvent or surfactant or cyclodextrin, 20% HPBCD/50 mM cit, room temperature): 2180 µg/mL (≈ 3510 µM); solubility at 18 h ([2]; 20 °C, aqueous with cosolvent or surfactant or cyclodextrin, 20% SBECD/50 mM cit, room temperature): 2720 µg/mL (≈ 4380 µM); solubility at 18 h ([2]; 20 °C, oil or lipid, Capryol 90, room temperature): 11100 µg/mL (≈ 17900 µM); solubility at 18 h ([2]; 20 °C, oil or lipid, Capryol PGMC, room temperature): 7920 µg/mL (≈ 12700 µM); solubility at 18 h ([2]; 20 °C, oil or lipid, Labrasol, room temperature): 77200 µg/mL (≈ 124000 µM); solubility at 18 h ([2]; 20 °C, oil or lipid, canola oil, room temperature): 71 µg/mL (≈ 114 µM); solubility at 18 h ([2]; 20 °C, organic solvent or mixture, EtOH, room temperature): 3920 µg/mL (≈ 6310 µM); solubility at 18 h ([2]; 20 °C, organic solvent or mixture, PEG400, room temperature): 57300 µg/mL (≈ 92300 µM); solubility at 18 h ([2]; 20 °C, organic solvent or mixture, PG, room temperature): 8260 µg/mL (≈ 13300 µM); solubility at 18 h ([2]; 20 °C, pH 1, simulated gastric fluid, 0.1M HCl, room temperature): < 4 µg/mL; solubility at 18 h ([2]; 20 °C, pH 13, aqueous buffer, 0.1M NaOH, room temperature): 192 µg/mL (≈ 309 µM); solubility at 18 h ([2]; 20 °C, saline or isotonic, 0.9% NaCl, room temperature): 5 µg/mL (≈ 8.05 µM); solubility at 18 h ([2]; water, room temperature (ca. 20 C)): < 4 µg/mL
O=C(Cc1ccccc1)Nc1ccc(CCCCc2nnc(NC(=O)Cc3ccccn3)s2)nn1 [Compound 354]	Yes (efflux ratios being significant when greater than or equal to 3 when the Papp (B→A) was greater than or equal to 1×10^−6 cm/s)	117	101	–	1.38	45	> 1	–
O=C(Cc1cccc(OC(F)(F)F)c1)Nc1ccc(CCCCc2nnc(NC(=O)[C@H](O)c3ccccc3)s2)nn1 [Compound 705]	Yes (efflux ratios being significant when greater than or equal to 3 when the Papp (B→A) was greater than or equal to 1×10^−6 cm/s)	60	67	6	8.52	51	> 1	–
O=C(Cc1ccccc1)Nc1ccc(CCCCc2nnc(NC(=O)C(O)c3cccc(Cl)c3)s2)nn1 (stereo not shown) [Compound 318]	Yes (efflux ratios being significant when greater than or equal to 3 when the Papp (B→A) was greater than or equal to 1×10^−6 cm/s)	73	82	18	2.45	44.5	> 1	–
CC(C)(C)OC(=O)NCc1cccc(CC(=O)Nc2nnc(CCCCc3ccc(NC(=O)Cc4ccccc4)nn3)s2)c1 [Compound 339]	Yes (efflux ratios being significant when greater than or equal to 3 when the Papp (B→A) was greater than or equal to 1×10^−6 cm/s)	73	80	–	2.39	41.6	> 1	–
CC(C(=O)Nc1ccc(CCCCc2nnc(NC(=O)Cc3cccc(CNC(=O)OC(C)(C)C)c3)s2)nn1)c1ccccc1 (stereo not shown) [Compound 436]	Yes (efflux ratios being significant when greater than or equal to 3 when the Papp (B→A) was greater than or equal to 1×10^−6 cm/s)	44	57	6.6	3.75	24.7	> 1	–
O=C(Cc1cccc(OC(F)(F)F)c1)Nc1ccc(CCCCc2nnc(NC(=O)Cc3cccc(OC(F)(F)F)c3)s2)nn1 [Compound 660]	Yes (efflux ratios being significant when greater than or equal to 3 when the Papp (B→A) was greater than or equal to 1×10^−6 cm/s)	56	68	3.9	0.61	2.37	< 1	–
CC(C(=O)Nc1nnc(CCCCc2ccc(NC(=O)Cc3ccccc3)nn2)s1)c1ccccc1 (stereo not shown) [Compound 616]	Yes (efflux ratios being significant when greater than or equal to 3 when the Papp (B→A) was greater than or equal to 1×10^−6 cm/s)	65	76	6	8.23	49.5	> 1	–
